± gives the expanded uncertainty stated by the source.
Experiments:
[1] = xn = mol fraction of the nth substance listed; settings: 101 kPa, Liquid, x2 = 0; for speed of sound: Linear variable-path acoustic interferometer; for viscosity: Capillary tube (Ostwald / Ubbelohde) method
[2] = 101 kPa, Liquid; for speed of sound: Linear variable-path acoustic interferometer; for viscosity: Capillary tube (Ostwald / Ubbelohde) method

SMILES | speed of sound ([1]; 298.15 K) [m/s] | mass density ([1]; 298.15 K) [kg/m3] | viscosity ([1]; 303.15 K) [mPa·s] | speed of sound ([1]; 303.15 K) [m/s] | mass density ([1]; 303.15 K) [kg/m3] | viscosity ([1]; 308.15 K) [mPa·s] | speed of sound ([1]; 308.15 K) [m/s] | mass density ([1]; 308.15 K) [kg/m3] | viscosity ([1]; 313.15 K) [mPa·s] | mass density ([2]; 298.15 K) [kg/m3] | speed of sound ([2]; 298.15 K) [m/s] | mass density ([2]; 303.15 K) [kg/m3] | viscosity ([2]; 303.15 K) [mPa·s] | speed of sound ([2]; 303.15 K) [m/s] | mass density ([2]; 308.15 K) [kg/m3] | viscosity ([2]; 308.15 K) [mPa·s] | speed of sound ([2]; 308.15 K) [m/s] | mass density ([2]; 313.15 K) [kg/m3] | viscosity ([2]; 313.15 K) [mPa·s] | speed of sound ([2]; 313.15 K) [m/s] | other results
CCCCOC(C)=O [butyl ethanoate] + O=S1(=O)CCCC1 | 1203 ± 5 | 875.6 ± 0.7 | 0.6072 ± 0.0061 | 1176 ± 5 | 871.6 ± 0.8 | 0.5687 ± 0.0057 | 1155 ± 5 | 867.1 ± 0.8 | 0.534 ± 0.0054 |  |  |  |  |  |  |  |  |  |  |  | speed of sound ([1]; 313.15 K): 1135 ± 5 m/s; mass density ([1]; 313.15 K): 862 ± 0.8 kg/m3
CCCOC(C)=O [propyl ethanoate] |  |  |  |  |  |  |  |  |  | 883.7 ± 0.7 | 1156 ± 5 | 877.7 ± 0.8 | 0.4878 ± 0.0054 | 1149 ± 5 | 873.1 ± 0.8 | 0.4595 ± 0.0048 | 1139 ± 5 | 866.7 ± 0.8 | 0.4329 ± 0.0046 | 1126 ± 5 | 
CCCCOC(C)=O [butyl ethanoate] |  |  |  |  |  |  |  |  |  | 875.6 ± 0.7 | 1203 ± 5 | 871.6 ± 0.8 | 0.6072 ± 0.0061 | 1176 ± 5 | 867.1 ± 0.8 | 0.5687 ± 0.0057 | 1155 ± 5 | 862 ± 0.8 | 0.534 ± 0.0054 | 1135 ± 5 | 
CCCOC(C)=O [propyl ethanoate] + O=S1(=O)CCCC1 | 1156 ± 5 | 883.7 ± 0.7 | 0.4878 ± 0.0054 | 1149 ± 5 | 877.7 ± 0.8 | 0.4595 ± 0.0048 | 1139 ± 5 | 873.1 ± 0.8 | 0.4329 ± 0.0046 |  |  |  |  |  |  |  |  |  |  |  | speed of sound ([1]; 313.15 K): 1126 ± 5 m/s; mass density ([1]; 313.15 K): 866.7 ± 0.8 kg/m3
O=S1(=O)CCCC1 [sulfolane] |  |  |  |  |  |  |  |  |  | 1263.9 ± 1.3 | 1601 ± 7 | 1261.8 ± 1.3 | 10.03 ± 0.079 | 1588 ± 7 | 1257 ± 1.3 | 8.795 ± 0.07 | 1576 ± 7 | 1251.6 ± 1.3 | 7.837 ± 0.063 | 1558 ± 7 | 
CCOC(C)=O [ethyl acetate] |  |  |  |  |  |  |  |  |  | 895.1 ± 0.8 | 1142 ± 5 | 889.4 ± 0.8 | 0.3806 ± 0.0041 | 1122 ± 5 | 883.9 ± 0.8 | 0.3622 ± 0.004 | 1101 ± 5 | 875.8 ± 0.8 | 0.3426 ± 0.0038 | 1082 ± 5 | 
CCOC(C)=O [ethyl acetate] + O=S1(=O)CCCC1 | 1142 ± 5 | 895.1 ± 0.8 | 0.3806 ± 0.0041 | 1122 ± 5 | 889.4 ± 0.8 | 0.3622 ± 0.004 | 1101 ± 5 | 883.9 ± 0.8 | 0.3426 ± 0.0038 |  |  |  |  |  |  |  |  |  |  |  | speed of sound ([1]; 313.15 K): 1082 ± 5 m/s; mass density ([1]; 313.15 K): 875.8 ± 0.8 kg/m3

From the NIST ThermoML archive (doi:10.1021/je800653d)
